Assay results from the NIST ThermoML archive (doi:10.1021/acs.jced.6b00149).
± gives the expanded uncertainty stated by the source.

Experiment: refractive index (Na D-line) (dimensionless)
Details: 298.15 K; 101.33 kPa; Liquid; Standard Abbe refractometry

Question: For O=Cc1ccco1 [2-furaldehyde], which refractive index is on record?
Answer: Its refractive index is 1.52263 ± 0.001.

Question: For COC(C)(C)C [2-methoxy-2-methylpropane], which refractive index is on record?
Answer: The refractive index was 1.36594 ± 0.001.

Question: For CC(C)=O [acetone], which refractive index is on record?
Answer: Its refractive index is 1.35553 ± 0.001.

Question: For O [water], which refractive index is on record?
Answer: Its refractive index is 1.33249 ± 0.001.
